The values that follow come from patent US4281121A, “1,3,4-Thiadiazole-2-carboxylic acid derivatives, process for making the same and fungicidal and nematocidal compositions containing same” (Schering Aktiengesellschaft, priority 1978, dated 1981).

Like-named read-outs stand apart in the source and are kept apart here.

The test system of one assay is Tilletia caries. As to the kind of experiment: Treatment of oat seeds infested with Tilletia caries (spore germination). The format is in vivo.
A further assay concerns Botrytis cinerea. As to the kind of experiment: Prophylactic leaf treatment of tomato plants against Botrytis cinerea. The assay is classed as in vivo. The settings on record: concentration of 0.025 of the active agent (unit not given).
For a further assay, the system named is Plasmopara viticola. As to the kind of experiment: Prophylactic leaf treatment of grapevines in the hothouse against Plasmopara viticola. The format is in vivo. The gist of the method:
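Grapevines (5–8 leaves) sprayed to runoff with compound as 20% spray powder, then after drying inoculated on leaf undersides with sporangial suspension (~20,000/ml). Incubated at 22–24 °C, saturated humidity, 3–4 days normal humidity (30–70%), then one day saturated; activity from mean % infested leaf area per treatment.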

For a further assay, the system named is Venturia inaequalis. As to the kind of experiment: Prophylactic leaf treatment of apples in open field test against Venturia inaequalis. The settings on record: 3 weeks. The format is in vivo.
A further assay concerns Pythium ultimum. As to the kind of experiment: Threshold concentration test for use of the compounds against Pythium ultimum (infested soil, garden peas). The assay is classed as in vivo. Details: key to root evaluation (1-4): 4: white roots without fungous necrosis; 3: white roots, minor fungous necrosis; 2: brown roots, already more pronounced fungous necrosis; 1: heavy fungous necrosis, roots rotted. The settings on record: for root evaluation (1-4): 3 weeks; for number of sound peas: 20 grains per dish, 3 weeks at 20-24° C. The procedure, abridged:
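Pulverulent agents at 20% concentration mixed evenly into soil heavily infested with Pythium ultimum, then garden peas ('Wunder von Kelvedon', 20 per dish) sown at once. After three weeks at 20–24 °C in a hothouse, sound peas counted and roots scored on a 1–4 scale.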

In assay [1] the test system is Helminthosporium gramineum. As to the kind of experiment: Seed treatment in open field tests for infestation by Helminthosporium gramineum (barley). The conditions noted are these: summer barley; 50 g active agent/100 kg barley; about 3 months. The format is in vivo. How it is done:
Seed treatment in open field tests for infestation by Helminthosporium gramineum
The active agents were used in the form of pulverulent compositions. After about 8 months in case of winter barley and after about 3 months in case of summer barley the infested plants were counted and the activity was calculated by the formula [formula]

Another assay has as its system Piricularia oryzae. The assay is classed as in vivo. The conditions noted are these: concentration of active agent 0.1 (percentages); 5 days.
The next assay deals with Helminthosporium gram. The settings on record: about 5 weeks.
[2] abbreviates: concentration of active agent 0.005 (unit not given).
The mark [3] stands for this setting: concentration of active agent 0.025 (unit not given).
[4] abbreviates: concentration of active agent 0.005 (in gram).
[5] abbreviates: concentration of active agent 0.025 (in gram).

On to `CCCCCCNC(=O)c1nnc([S+]([O-])CCC)s1` (centres unmarked) [5-propylsulfinyl-1,3,4-thiadiazole-2-carboxylic acid-hexylamide], for which the “% activity” value was 100% with Tilletia caries (20 g active agent per 100 kg); 100% in the assay with Tilletia caries (50 g active agent per 100 kg); 80% in the assay on Botrytis cinerea; 95% in the assay on Plasmopara viticola (concentration of active agent 0.001 (unit not given)); 99.1% in the assay on Plasmopara viticola (setting [2]); 100% with Plasmopara viticola (setting [3]).
Turning to `CCCCCCCCNC(=O)c1nnc(S(=O)(=O)CC)s1` [5-ethylsulfonyl-1,3,4-thiadiazole-2-carboxylic acid-octylamide], the “% activity” value is 91% in the assay on Tilletia caries (10 g active agent per 100 kg); 93% with Tilletia caries (20 g active agent per 100 kg); 98% in the assay with Tilletia caries (50 g active agent per 100 kg); 87% in the assay on Botrytis cinerea; 90% in the assay with Plasmopara viticola (setting [3]).
Regarding `CCNC(=O)c1nnc(S(C)(=O)=O)s1` [5-methylsulfonyl-1,3,4-thiadiazole-2-carboxylic acid-ethylamide], the “% activity” value was 99.2% in the assay with Tilletia caries (10 g active agent per 100 kg); 99.2% in the assay on Tilletia caries (20 g active agent per 100 kg); 98% with Tilletia caries (50 g active agent per 100 kg); 81% in the assay on Venturia inaequalis (setting [4]); 97% in the assay on Venturia inaequalis (setting [5]); 100% in assay [1]. Moreover, the “% activity” value was 90% in the assay on Piricularia oryzae, 81% in the assay with Plasmopara viticola (setting [2]), 97% in the assay on Plasmopara viticola (setting [3]) and 93% with Helminthosporium gram (50 g active agent per 100 kg). In addition, the “root evaluation (1-4)” value in the assay on Pythium ultimum (20 mg/l soil), with Pythium ultimum (40 mg/l soil) and with Pythium ultimum (80 mg/l soil) was 4 each time. Also, the “number of sound peas” value in the assay on Pythium ultimum (20 mg/l soil), in the assay with Pythium ultimum (40 mg/l soil) and with Pythium ultimum (80 mg/l soil) was 15 in each case.
Regarding `CC(C)NC(=O)c1nnc([S+](C)[O-])s1` (centres unmarked) [5-methylsulfinyl-1,3,4-thiadiazole-2-carboxylic acid-isopropylamide], the “% activity” value with Tilletia caries (20 g active agent per 100 kg) is listed as 100%; in the assay on Tilletia caries (50 g active agent per 100 kg), 100%; with Venturia inaequalis (setting [4]) it was 71%; with Venturia inaequalis (setting [5]), 90%; with Piricularia oryzae, 90%; with Plasmopara viticola (setting [3]) it was 90%. Also, the “% activity” value in the assay with Helminthosporium gram (20 g active agent per 100 kg) is on record as 96%; in the assay on Helminthosporium gram (50 g active agent per 100 kg) it was 100%. Further, the “root evaluation (1-4)” value in the assay on Pythium ultimum (20 mg/l soil), in the assay with Pythium ultimum (40 mg/l soil) and with Pythium ultimum (80 mg/l soil) was 4 throughout. Moreover, the “number of sound peas” value in the assay with Pythium ultimum (20 mg/l soil) was 19; in the assay with Pythium ultimum (40 mg/l soil), 19; with Pythium ultimum (80 mg/l soil), 20.
For the compound `CCCS(=O)(=O)c1nnc(C(=O)NC)s1` [5-propylsulfonyl-1,3,4-thiadiazole-2-carboxylic acid-methylamide], the “% activity” value is given as 99.5% in the assay on Tilletia caries (10 g active agent per 100 kg), 99.5% in the assay on Tilletia caries (20 g active agent per 100 kg), 100% in the assay with Tilletia caries (50 g active agent per 100 kg) and 88% in the assay with Botrytis cinerea. Also, the “root evaluation (1-4)” value with Pythium ultimum (20 mg/l soil), with Pythium ultimum (40 mg/l soil) and in the assay on Pythium ultimum (80 mg/l soil) was 4 in each case. Besides, the “number of sound peas” value was 19 in the assay on Pythium ultimum (20 mg/l soil), 16 in the assay with Pythium ultimum (40 mg/l soil) and 15 with Pythium ultimum (80 mg/l soil).
Turning to `CCCNC(=O)c1nnc([S+](C)[O-])s1` (centres unmarked) [5-methylsulfinyl-1,3,4-thiadiazole-2-carboxylic acid-propylamide], the “% activity” value was 99% with Tilletia caries (10 g active agent per 100 kg); 100% in the assay with Tilletia caries (20 g active agent per 100 kg); 100% with Tilletia caries (50 g active agent per 100 kg); 62% in the assay with Venturia inaequalis (setting [4]); 99.7% in the assay with Venturia inaequalis (setting [5]); 97% in assay [1]. Moreover, the “% activity” value stood at 75% in the assay on Plasmopara viticola (setting [2]); 99% in the assay with Plasmopara viticola (setting [3]); 75% in the assay on Helminthosporium gram (10 g active agent per 100 kg); 98% with Helminthosporium gram (20 g active agent per 100 kg); 100% in the assay with Helminthosporium gram (50 g active agent per 100 kg). Further, the “root evaluation (1-4)” value in the assay with Pythium ultimum (20 mg/l soil), in the assay with Pythium ultimum (40 mg/l soil) and in the assay with Pythium ultimum (80 mg/l soil) was 4 throughout. Besides, the “number of sound peas” value with Pythium ultimum (20 mg/l soil) amounted to 14; in the assay with Pythium ultimum (40 mg/l soil) it was 15; in the assay with Pythium ultimum (80 mg/l soil) it was 15.
